Test results: ChEMBL document CHEMBL1140621, “2D-autocorrelation descriptors for predicting cytotoxicity of naphthoquinone ester derivatives against oral human epidermoid carcinoma” (Bioorg Med Chem, 2007)

Tested on: KB
Test: Cytotoxicity against human KB cells
Format: functional, cell-based

Question: Which IC50 does the source give for `COc1cc(C(=O)OCC(C)(C)CC2=CC(=O)c3ccccc3C2=O)c(OC)c2ccccc12` here?
Answer: 12.5 µM
